{"source": "patent US20180214449A1", "about": "“CANCER THERAPY USING JAK INHIBITOR IN COMBINATION WITH MAPK INHIBITORS” (UBRX, INC., priority 2015, published 2018)", "key": {"[1]": {"system": "B-Raf inhibitor resistant cells A375 or Lu1205R", "experiment": "Growth in soft agar of B-Raf inhibitor resistant cells", "format": "cell-based, human", "settings": "two weeks in soft agar", "experimental": "Melanoma cells A375 and Lu1205 were cultured in Dulbecco's modified Eagle's medium (DMEM) supplemented with 10% fetal bovine serum (FBS), and penicillin-streptomycin. The melanoma UACC cell lines (UACC91, UACC502, UACC612, UACC647, and UACC1113) were maintained in Rosewell Park Memorial Institute Medium (RPMI1640) supplemented with 10% FBS and penicillin-streptomycin."}, "JAK1": {"system": "JAK1", "settings": "cited from earlier work"}, "JAK2": {"biological_target": "JAK2 (Homo sapiens, UniProt O60674)", "sequence (O60674 whole entry, species assumed)": "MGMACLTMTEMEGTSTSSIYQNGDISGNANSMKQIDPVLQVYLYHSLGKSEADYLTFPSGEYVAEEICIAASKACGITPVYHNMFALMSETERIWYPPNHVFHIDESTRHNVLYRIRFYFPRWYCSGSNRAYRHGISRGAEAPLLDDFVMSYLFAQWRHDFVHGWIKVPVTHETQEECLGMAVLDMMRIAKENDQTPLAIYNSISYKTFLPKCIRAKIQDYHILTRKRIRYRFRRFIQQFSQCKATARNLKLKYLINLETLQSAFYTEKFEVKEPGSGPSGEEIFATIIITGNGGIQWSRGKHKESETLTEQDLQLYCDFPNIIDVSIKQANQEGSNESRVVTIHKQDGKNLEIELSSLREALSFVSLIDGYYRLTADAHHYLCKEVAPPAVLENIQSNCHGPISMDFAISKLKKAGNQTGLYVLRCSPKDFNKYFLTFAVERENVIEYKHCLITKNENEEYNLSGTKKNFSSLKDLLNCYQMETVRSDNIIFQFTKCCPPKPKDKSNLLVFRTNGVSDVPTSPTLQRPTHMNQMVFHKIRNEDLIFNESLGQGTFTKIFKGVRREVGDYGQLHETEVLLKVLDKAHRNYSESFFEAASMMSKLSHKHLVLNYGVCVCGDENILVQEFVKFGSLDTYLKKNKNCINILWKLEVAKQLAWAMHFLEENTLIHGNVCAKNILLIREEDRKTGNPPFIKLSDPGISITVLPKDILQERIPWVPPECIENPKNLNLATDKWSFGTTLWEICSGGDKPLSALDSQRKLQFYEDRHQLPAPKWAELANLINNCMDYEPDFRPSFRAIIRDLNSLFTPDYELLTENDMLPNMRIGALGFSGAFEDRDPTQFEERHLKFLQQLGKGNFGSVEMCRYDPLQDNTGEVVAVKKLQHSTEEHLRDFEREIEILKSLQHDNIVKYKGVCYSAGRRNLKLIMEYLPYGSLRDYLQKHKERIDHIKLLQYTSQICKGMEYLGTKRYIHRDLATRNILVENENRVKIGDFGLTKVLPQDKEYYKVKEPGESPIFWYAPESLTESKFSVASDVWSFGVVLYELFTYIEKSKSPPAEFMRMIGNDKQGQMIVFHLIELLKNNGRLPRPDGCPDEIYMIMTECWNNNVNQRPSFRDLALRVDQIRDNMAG", "settings": "cited from earlier work"}, "UACC257": {"system": "UACC257", "experiment": "IC50 to B-Raf inhibitors in melanoma cell line", "format": "cell-based", "settings": "Homo sapiens, UACC-257"}, "UACC558": {"system": "UACC558", "experiment": "IC50 to B-Raf inhibitors in melanoma cell line", "format": "cell-based", "settings": "Homo sapiens"}, "UACC502": {"system": "UACC502", "experiment": "IC50 to B-Raf inhibitors in melanoma cell line", "format": "cell-based", "settings": "Homo sapiens", "experimental": "(§1) Melanoma cells A375 and Lu1205 were cultured in Dulbecco's modified Eagle's medium (DMEM) supplemented with 10% fetal bovine serum (FBS), and penicillin-streptomycin. The melanoma UACC cell lines (UACC91, UACC502, UACC612, UACC647, and UACC1113) were maintained in Rosewell Park Memorial Institute Medium (RPMI1640) supplemented with 10% FBS and penicillin-streptomycin. In order to develop resistance to B-Raf inhibitor PLX-4032, the cells were grown with increasing concentrations of the inhibitor at each passage and eventually maintained in appropriate media containing either 5 μM (for A375 and Lu1205 cells) or 1 μM (for UACC cells) PLX-4032.\n(§2) Melanoma cell lines UACC91, UACC502, UACC612, UACC647, and UACC1113 were treated with B-Raf inhibitors PLX-4032 or PLX-4720, and the IC50 values were correlated with RNF125 expression levels. The RNF125 expression was determined using RNA-Sequencing (RNA-Seq) methods and expressed in fragments per kilobase per million reads unit (FPKM)."}, "UACC612": {"system": "UACC612", "experiment": "IC50 to B-Raf inhibitors in melanoma cell line", "format": "cell-based", "settings": "Homo sapiens", "experimental": "as §1, §2"}, "UACC647": {"system": "UACC647", "experiment": "IC50 to B-Raf inhibitors in melanoma cell line", "format": "cell-based", "settings": "Homo sapiens", "experimental": "as §1, §2"}, "UACC91": {"system": "UACC91", "experiment": "IC50 to B-Raf inhibitors in melanoma cell line", "format": "cell-based", "settings": "Homo sapiens", "experimental": "as §1, §2"}, "UACC903": {"system": "UACC903", "experiment": "IC50 to B-Raf inhibitors in melanoma cell line", "format": "cell-based", "settings": "Homo sapiens, UACC-903"}, "UACC1308": {"system": "UACC1308", "experiment": "IC50 to B-Raf inhibitors in melanoma cell line", "format": "cell-based", "settings": "Homo sapiens"}, "UACC2641": {"system": "UACC2641", "experiment": "IC50 to B-Raf inhibitors in melanoma cell line", "format": "cell-based", "settings": "Homo sapiens"}, "UACC3291": {"system": "UACC3291", "experiment": "IC50 to B-Raf inhibitors in melanoma cell line", "format": "cell-based", "settings": "Homo sapiens"}, "[2]": {"system": "other protein tyrosine kinases", "settings": "read-out: IC50s for other protein tyrosine kinases; units printed within the range (nM to μM); cited from earlier work"}, "[3]": {"system": "mouse T-cell lymphoma cells", "settings": "read-out: IC50, IL-2 and IL-4-dependent proliferation; cited from earlier work"}, "[4]": {"system": "A375, Lu1205, and several UACC melanoma cell lines resistant to BRAF inhibitors or BRAF and MEK inhibitors", "experiment": "Example 2: growth in soft agar of resistant melanoma cells", "format": "cell-based, human", "settings": "two weeks in soft agar, 0-10 μM", "experimental": "The cells are grown for two weeks in soft agar, in the presence of 0-10 μM of ruxolitinib (JAK1 inhibitor), dabrafenib (BRAF inhibitor), trametinib (MEK inhibitor) as single agents or in combination therapies, using a constant volume of inhibitor for all the conditions."}, "melanoma patients": {"system": "melanoma patients", "settings": "clinical trial data; cited from earlier work"}}}
{"molecule": "Cc1cc(Nc2nc(N[C@@H](C)c3ncc(F)cn3)ncc2Cl)n[nH]1", "note": "[AZD1480]", "values": [{"measurement": "growth in soft agar", "setting": "[1]", "result": "did not inhibit growth"}, {"measurement": "IC50", "setting": "JAK1", "result": 1.3, "unit": "nM"}, {"measurement": "IC50", "setting": "JAK2", "result": 0.26, "unit": "nM"}]}
{"molecule": "COc1cc2ncnc(Nc3ccc(F)c(Cl)c3)c2cc1OCCCN1CCOCC1", "note": "[Gefitinib]", "values": [{"measurement": "growth in soft agar", "setting": "[1]", "result": "did not inhibit growth"}]}
{"molecule": "CCCS(=O)(=O)Nc1ccc(F)c(C(=O)c2c[nH]c3ncc(-c4ccc(Cl)cc4)cc23)c1F", "note": "[PLX-4032, vemurafenib]", "values": [{"measurement": "IC50", "setting": "UACC257", "result": 150, "unit": "nM"}, {"measurement": "IC50", "setting": "UACC558", "result": 690, "unit": "nM"}, {"measurement": "IC50", "setting": "UACC502", "result": 550, "unit": "nM"}, {"measurement": "IC50", "setting": "UACC612", "result": 3780, "unit": "nM"}, {"measurement": "IC50", "setting": "UACC647", "result": 3370, "unit": "nM"}, {"measurement": "IC50", "setting": "UACC91", "result": 301, "unit": "nM"}, {"measurement": "IC50", "setting": "UACC903", "result": 250, "unit": "nM"}, {"measurement": "IC50", "setting": "UACC1308", "result": 60, "unit": "nM"}, {"measurement": "IC50", "setting": "UACC2641", "result": 5880, "unit": "nM"}, {"measurement": "IC50", "setting": "UACC3291", "result": 60, "unit": "nM"}]}
{"molecule": "CCCS(=O)(=O)Nc1ccc(F)c(C(=O)c2c[nH]c3ncc(Cl)cc23)c1F", "note": "[PLX-4702]", "values": [{"measurement": "IC50", "setting": "UACC257", "result": 140, "unit": "nM"}, {"measurement": "IC50", "setting": "UACC558", "result": 420, "unit": "nM"}, {"measurement": "IC50", "setting": "UACC502", "result": 780, "unit": "nM"}, {"measurement": "IC50", "setting": "UACC612", "result": 5480, "unit": "nM"}, {"measurement": "IC50", "setting": "UACC647", "result": 6720, "unit": "nM"}, {"measurement": "IC50", "setting": "UACC91", "result": 532, "unit": "nM"}, {"measurement": "IC50", "setting": "UACC903", "result": 250, "unit": "nM"}, {"measurement": "IC50", "setting": "UACC1308", "result": 90, "unit": "nM"}, {"measurement": "IC50", "setting": "UACC2641", "result": 4590, "unit": "nM"}, {"measurement": "IC50", "setting": "UACC3291", "result": 90, "unit": "nM"}]}
{"molecule": "CC(C)(C)c1nc2c3cc[nH]c(=O)c3c3cc(F)ccc3c2[nH]1", "note": "[Pyridone 6]", "values": [{"measurement": "IC50", "setting": "[2]", "result": "≥ 130", "unit": "nM"}, {"measurement": "IC50", "setting": "[3]", "result": "50 to 100", "unit": "nM"}]}
{"molecule": "CC(C)(C)c1nc(-c2cccc(NS(=O)(=O)c3c(F)cccc3F)c2F)c(-c2ccnc(N)n2)s1", "note": "[dabrafenib]", "values": [{"measurement": "growth of the melanoma cells in soft agar", "setting": "[4]", "result": "does not block the growth"}, {"measurement": "time until resistance occurs", "setting": "melanoma patients", "result": "6 to 7", "unit": "months"}]}
